{"source": "patent US8759368B2", "about": "“Benzoic acid, benzoic acid derivatives and heteroaryl carboxylic acid conjugates of hydrocodone, prodrugs, methods of making and use thereof” (KemPharma, Inc., priority 2009, dated 2014)", "key": {"[1]": {"experiment": "Chemical stability: hydrolysis in 5% NaHCO3 for one hour", "type": "physicochemical", "conditions": "5% NaHCO3, one hour; for %-release in 5% NaHCO3, ambient: ambient temperature (~20° C.); for %-release in 5% NaHCO3, 100° C.: oil bath at 100° C."}, "[2]": {"experiment": "Chemical stability: hydrolysis to hydrocodone in 1 N HCl for 1 hour", "conditions": "for %-release in 1N HCl, ambient: ambient temperature (~20° C.); for %-release in 1N HCl, 100° C.: oil bath at 100° C."}, "[3]": {"experiment": "Water solubility / hydrophobicity of conjugates (feasibility of intranasal or intravenous dosing)", "conditions": "for hydrophobic character (in words): do not dissolve in a practical amount of water for intravenous dosing at oral equivalent doses; for water solubility (in words): mixed with water, basis for intranasal or intravenous dosing in rats"}, "[4]": {"experiment": "Intranasal PK in rats, plasma hydrocodone and hydromorphone by LC-MS/MS", "conditions": "equivalent to 2 mg/kg hydrocodone freebase"}, "[5]": {"experiment": "Oral PK in dogs, plasma intact Bz-HC, hydrocodone and hydromorphone by LC-MS/MS", "conditions": "equivalent to 2 mg/kg freebase hydrocodone, FIG. 17"}, "[6]": {"experiment": "Oral PK in rats, plasma hydrocodone, hydromorphone and intact conjugate by LC-MS/MS"}, "[7]": {"experiment": "Chemical stability: hydrolysis of conjugate in water for one hour", "type": "physicochemical", "conditions": "for water, ambient (amount of conjugate hydrolyzed): ambient temperature (about 20° C.); for water, 100° C. (amount of conjugate hydrolyzed): oil bath at 100° C.", "experimental": "Exemplary conjugates of hydrocodone of the present technology and control test conjugates not of the present technology were tested for chemical stability under conditions similar to what a potential drug abuser may use to “extract” the active portion of the molecule, for example dissolved in water, hydrochloric acid or sodium bicarbonate either at ambient temperature or 100° C."}, "[8]": {"conditions": "equivalent to 2 mg/kg freebase hydrocodone, FIG. 14"}, "[9]": {"conditions": "equivalent to 2 mg/kg hydrocodone freebase, FIG. 11"}, "[10]": {"conditions": "equivalent to 2 mg/kg hydrocodone freebase, FIG. 12"}}}
{"compound": "COc1ccc(C(=O)OC2=CC[C@H]3[C@H]4Cc5ccc(OC)c6c5[C@@]3(CCN4C)C2O6)cc1O", "note": "(stereo partly shown) [3-OH-4-MeO-Bz-HC]", "values": [{"measurement": "%-release in 5% NaHCO3, ambient", "setting": "[1]", "value": 0, "unit": "%"}, {"measurement": "%-release in 5% NaHCO3, 100° C.", "setting": "[1]", "value": 36, "unit": "%"}, {"measurement": "%-release in 1N HCl, ambient", "setting": "[2]", "value": 0, "unit": "%"}, {"measurement": "%-release in 1N HCl, 100° C.", "setting": "[2]", "value": 35, "unit": "%"}, {"measurement": "hydrophobic character (in words)", "setting": "[3]", "value": "hydrophobic"}, {"measurement": "water solubility (in words)", "setting": "[3]", "value": "poorly water soluble"}]}
{"compound": "COc1ccc2c3c1OC1C(OC(=O)CCCCC(=O)O)=CC[C@H]4[C@@H](C2)N(C)CC[C@]314", "note": "(stereo partly shown) [Adipate-HC, reference compound]", "values": [{"measurement": "%-release in 5% NaHCO3, ambient", "setting": "[1]", "value": 3, "unit": "%"}, {"measurement": "%-release in 5% NaHCO3, 100° C.", "setting": "[1]", "value": 100, "unit": "%"}, {"measurement": "AUC for hydromorphone released from Adipate-HC, higher than for Bz-HC (sentence on hydrocodone plasma concentrations)", "setting": "[4]; FIG. 7", "value": "approximately 280%"}, {"measurement": "Cmax for hydromorphone released from Adipate-HC, higher than for Bz-HC (sentence on hydrocodone plasma concentrations)", "setting": "[4]; FIG. 7", "value": "~60", "unit": "%"}, {"measurement": "AUC for hydromorphone released from Adipate-HC, higher than for Bz-HC", "setting": "[4]; FIG. 8", "value": "approximately 750%"}, {"measurement": "Cmax for hydromorphone released from Adipate-HC, higher than for Bz-HC", "setting": "[4]; FIG. 8", "value": "~660", "unit": "%"}, {"measurement": "%-release in 1N HCl, ambient", "setting": "[2]", "value": 13, "unit": "%"}, {"measurement": "%-release in 1N HCl, 100° C.", "setting": "[2]", "value": 100, "unit": "%"}, {"measurement": "water solubility (in words)", "setting": "[3]", "value": "water soluble"}]}
{"compound": "COc1ccc2c3c1OC1C(OC(=O)c4ccccc4)=CCC4C(C2)N(C)CCC314", "note": "(stereo not shown) [Bz-HC, benzoate-hydrocodone]", "values": [{"measurement": "AUC value for intact Bz-HC as % of the AUC value for hydrocodone", "setting": "[5]", "value": "approximately 10%"}, {"measurement": "hydrocodone plasma concentrations compared with Adipate-HC", "setting": "[4]; FIG. 7", "value": "significantly lower"}, {"measurement": "plasma concentration of hydromorphone compared with Adipate-HC", "setting": "[4]; FIG. 8", "value": "very low"}, {"measurement": "Cmax values of hydrocodone and hydromorphone versus dose", "setting": "[6]; 0.25 to 4.00 mg/kg, particularly for hydromorphone", "value": "more variable"}, {"measurement": "maximum plasma concentrations of hydromorphone versus dose", "setting": "[6]; doses above 2.00 mg/kg of Bz-HC", "value": "did not significantly change"}, {"measurement": "exposures (AUC) to hydrocodone and hydromorphone versus dose", "setting": "[6]; doses of Bz-HC between 0.25 and 4.00 mg/kg, FIGS. 19 and 20", "value": "fairly linear"}, {"measurement": "oral PK curve for released hydrocodone compared with YYFFI-HC", "setting": "[6]; equivalent to 2 mg/kg freebase hydrocodone, FIG. 5", "value": "somewhat similar"}, {"measurement": "AUC for intact Bz-HC as % of the AUC value for hydrocodone", "setting": "[6]; [8]", "value": "approximately 10%"}, {"measurement": "AUC for intact Bz-HC as % of the AUC value for hydromorphone", "setting": "[6]; [8]", "value": "~3", "unit": "%"}, {"measurement": "hydrophobic character (in words)", "setting": "[3]", "value": "hydrophobic"}, {"measurement": "water solubility (in words)", "setting": "[3]", "value": "poor water solubility"}]}
{"compound": "COc1ccc2c3c1OC1C(OC(=O)c4ccccc4N)=CCC4C(C2)N(C)CCC314.Cl.Cl", "note": "(stereo not shown) [Compound 2-ABz-HC, 2-Aminobenzoic Acid Ester of Hydrocodone Dihydrochloride Salt]", "values": [{"measurement": "water, ambient (amount of conjugate hydrolyzed)", "setting": "[7]", "value": 0, "unit": "%"}, {"measurement": "water, 100° C. (amount of conjugate hydrolyzed)", "setting": "[7]", "value": 0, "unit": "%"}, {"measurement": "%-release in 1N HCl, ambient", "setting": "[2]", "value": 0, "unit": "%"}, {"measurement": "%-release in 1N HCl, 100° C.", "setting": "[2]", "value": 16, "unit": "%"}, {"measurement": "hydrocodone AUC, lower than for Hydrocodone.BT", "setting": "[6]; [9]", "value": "approximately 35%"}, {"measurement": "hydrocodone Cmax, lower than for Hydrocodone.BT", "setting": "[6]; [9]", "value": "~60", "unit": "%"}, {"measurement": "hydromorphone AUC, lower than for Hydrocodone.BT", "setting": "[6]; [10]", "value": "approximately 25%"}, {"measurement": "hydromorphone Cmax, lower than for Hydrocodone.BT", "setting": "[6]; [10]", "value": "~50", "unit": "%"}]}
{"compound": "COc1ccc2c3c1O[C@H]1C(OC(=O)c4ccccc4O)=CC[C@H]4[C@@H](C2)N(C)CC[C@]314.Cl", "note": "[Compound 2-OH-Bz-HC, Salicylic Acid Ester of Hydrocodone Hydrochloride Salt]", "values": [{"measurement": "hydrophobic character (in words)", "setting": "[3]", "value": "hydrophobic"}]}
{"compound": "COc1ccc2c3c1OC1C(OC(=O)c4cccc(O)c4)=CCC4C(C2)N(C)CCC314", "note": "(stereo not shown) [Compound 3-OH-Bz-HC]", "values": [{"measurement": "hydrophobic character (in words)", "setting": "[3]", "value": "hydrophobic"}, {"measurement": "water solubility (in words)", "setting": "[3]", "value": "poorly water soluble"}]}
{"compound": "COc1ccc(C(=O)OC2=CC[C@H]3[C@H]4Cc5ccc(OC)c6c5[C@@]3(CCN4C)C2O6)cc1", "note": "(stereo partly shown) [Compound 4-MeO-Bz-HC]", "values": [{"measurement": "water, ambient (amount of conjugate hydrolyzed)", "setting": "[7]", "value": 0, "unit": "%"}, {"measurement": "water, 100° C. (amount of conjugate hydrolyzed)", "setting": "[7]", "value": 0, "unit": "%"}, {"measurement": "hydrophobic character (in words)", "setting": "[3]", "value": "hydrophobic"}]}
{"compound": "COc1ccc2c3c1O[C@H]1C(OC(=O)c4ccc(O)cc4)=CC[C@H]4[C@@H](C2)N(C)CC[C@]314", "note": "[Compound 4-OH-Bz-HC]", "values": [{"measurement": "%-release in 5% NaHCO3, ambient", "setting": "[1]", "value": 1, "unit": "%"}, {"measurement": "%-release in 5% NaHCO3, 100° C.", "setting": "[1]", "value": 23, "unit": "%"}, {"measurement": "water, ambient (amount of conjugate hydrolyzed)", "setting": "[7]", "value": 0, "unit": "%"}, {"measurement": "water, 100° C. (amount of conjugate hydrolyzed)", "setting": "[7]", "value": 0, "unit": "%"}, {"measurement": "%-release in 1N HCl, ambient", "setting": "[2]", "value": 0, "unit": "%"}, {"measurement": "%-release in 1N HCl, 100° C.", "setting": "[2]", "value": 30, "unit": "%"}, {"measurement": "hydrophobic character (in words)", "setting": "[3]", "value": "hydrophobic"}]}
{"compound": "COc1ccc2c3c1OC1C(OC(=O)COCC(=O)O)=CC[C@H]4[C@@H](C2)N(C)CC[C@]314", "note": "(stereo partly shown) [Diglycolate-HC, reference compound]", "values": [{"measurement": "water solubility (in words)", "setting": "[3]", "value": "water soluble"}]}
{"compound": "COc1ccc2c3c1OC1C(OC(=O)c4cccnc4)=CCC4C(C2)N(C)CCC314", "note": "(stereo not shown) [Nicotinate-HC, nicotinate-hydrocodone]", "values": [{"measurement": "hydrocodone and hydromorphone plasma concentrations compared with unconjugated Hydrocodone.BT", "setting": "[6]; equivalent to 2 mg/kg hydrocodone freebase, FIGS. 9 and 10", "value": "below the respective concentrations"}, {"measurement": "AUC values of hydrocodone and hydromorphone compared with Hydrocodone.BT", "setting": "[6]; same dose based on hydrocodone freebase", "value": "within the range of bioequivalence"}, {"measurement": "hydrophobic character (in words)", "setting": "[3]", "value": "hydrophobic"}]}
{"compound": "COc1ccc2c3c1OC1C(OC(=O)c4ccc5c(c4)OCO5)=CC[C@H]4[C@@H](C2)N(C)CC[C@]314", "note": "(stereo partly shown) [Piperonylate-HC]", "values": [{"measurement": "hydrophobic character (in words)", "setting": "[3]", "value": "hydrophobic"}, {"measurement": "water solubility (in words)", "setting": "[3]", "value": "poorly water soluble"}]}
{"compound": "Tyr-Tyr-Phe-Phe-Ile-Hydrocodone [YYFFI-HC, reference compound]", "values": [{"measurement": "%-release in 5% NaHCO3, ambient", "setting": "[1]", "value": 0, "unit": "%"}, {"measurement": "%-release in 5% NaHCO3, 100° C.", "setting": "[1]", "value": 70, "unit": "%"}]}
